# In patent publication US20140294729A1, “METHODS FOR IDENTIFICATION AND USE OF AGENTS TARGETING CANCER STEM CELLS” (Whitehead Institute for Biomedical Research, priority 2008, published 2014):
# Entries after “also recorded” stand apart in the source; their conditions may differ. *1 amine or outer side, *2 acyl side, *3 side chain or, on linkers, in order; H or OH if unused. Where a SMILES comes first, the peptide text is derived from it. Bridges are numbered along the chain shown (N, C = ends). Roman numbers before positions name the chains, in order. [ ]: non-standard residue; d: D form. Actinocin(9to1) = Cc1c2oc3c(C)ccc(C(=O)[*:1])c3nc-2c(C(=O)[*:2])c(N)c1=O; NMeV = CN[C@H](C(=O)O)C(C)C; Sar = CNCC(=O)O
# Assays:
# [1] = tested on: HMLEshEcad cells; test: Dose-response viability of HMLEshCntrl vs HMLEshEcad cells (validation of hits, 384-well, Cell-Titer-Glo); format: cell-based, human; details: FIG. 4A; for selective toxicity towards HMLEshEcad cells relative to HMLEshCntrl cells: dose response on retesting; for IC50 fold lower for HMLEshEcad cells vs HMLEshCntrl cells: 3 day treatment, 8 concentrations
# Description: (§1) FIG. 4A depicts dose response curves of HMLEshCntrl (A, light gray curve) and HMLEshEcad (A, dark gray curve) cells treated with the 8 compounds identified during the initial screen. 1000 cells of each line were seeded onto 384 well plates and treated with 8 different concentrations of compounds within a 2.5 log range. The cell viability after 3 day treatment was measured by Cell-Titer-Glo. […] FIG. 4B depicts dose response curves of HMLEshCntrl (curve with square data points) and HMLE-Twist (curve with triangular data points) cells treated with the same compounds as in (A). Note that selectivity of Salinomycin, Abamectin, Etoposide and Nigericin (Top, Left-to-Right) is retained even though a different method of EMT induction is used. […] 1 Day after seeding DMSO, Salinomycin (1.25 or 5 μM) or Abamectin (0.25 or 1.25 μM) was added at the indicated concentration. As the GFP vector contains a Blasticidin resistance gene, we used Blasticidin treatment as a positive control for the expansion of GFP-expressing control HMLE cells. After 3 day incubation the mix population of cells were analyzed by flow cytometry and the percentage of GFP-positive cells were determined. […] FIG. 4D depicts dose response curves of transformed HMLERshCntrl (light gray line) and HMLERshEcad (dark gray lines) cells treated with Salinomycin and Abamectin. Dotted line denotes the 50% fraction surviving.
# We pursued 8 of the 32 compounds for further study and evaluated their effects across a range of doses.
# For each of these compounds, we evaluated the effect on cell viability across a series of doses for sibling cell lines either induced into or not induced into EMT.
# Information about the general automated HTS protocol is available online at broad.harvard.edu/chembio/index.html. The assay was initiated by plating 40 μL of medium containing 1000 cells/well into white 384-well opaque-bottom plates (Nunc, Rochester, N.Y.) using an automated plate filler (Bio-Tek μFiller; Winsooki, Vt.) and allowing the cells to adhere for 24 hours. 100 nL of compound stock solutions in dmso was transferred from stock plates into the 384-well assay plates using an automated pin-based compound transfer robot (CyBio CyBi-Well vario; Woburn, Mass.). For most compounds the final concentration in each well was calculated to be 10 uM.
# The screen was performed in duplicate. For negative controls, entire dmso-treated control plates were employed, in addition to dmso-only control wells that were incorporated into each compound assay plate. The cells were assayed for luciferase activity with the addition 20 ul of CellTiter-Glo Luminescent Cell Viability Assay solution (Promega). The luminescent signal from each plate was detected using an automated plate reader (Perkin-Elmer Envision 1; Wellesley, Mass.).
# (§2) Individual compounds were purchased from Sigma and dissolved in DMSO with the exception of nigericin which was dissolved in 100% ethanol. Activity of the compounds were quantified by generating dose-response curves for HMLE-shCntrl, HMLE-shEcad and HMLE-Twist under the same cell density and culture conditions described for the initial screen, using the 384-well plate based system.
# [2] = tested on: HMLEshEcad cells; test: Resistance to cytotoxic agents, immortalized HMLEshCntrl vs HMLEshEcad (MTS viability); format: cell-based, human; details: three concentrations, FIG. 2B
# Description: (§3) FIGS. 2A-2D depict that passage through the EMT leads to resistance to conventional chemotherapy drugs. FIG. 2A depicts dose response curves of transformed HMLERshCntrl (light gray line) and HMLERshEcad (dark gray line) cells treated with Paclitaxel and Doxorubicin. Dotted line denotes the 50% fraction surviving. […] FIG. 2B depicts the response of immortalized cells to chemotherapy drugs. HMLEshCntrl and HMLEshEcad cells were treated with the indicated drugs at three concentrations for 3 days and assayed for viability using the MTS assay. While Doxorubucin, Actinomycin D, Paclitaxel and Campthotecin are chemotherapeutic drugs, Staurosporine is a general kinase inhibitor that potently induce apoptosis. FIGS. 2C and 2D depict paclitaxel treatment leads to selective expansion of a minority cell population that has undergone an EMT. Control HMLE cells and GFP expressing HMLEshEcad cells were mixed at a ratio of 20:1 and seeded onto 6-well plates in triplicate. DMSO or Paclitaxel at 2.5 nm or 10 nm concentration was added onto the mixed cell populations 1 day after seeding followed by a 3 day incubation. The number of GFP-positive cells at the end of treatment were analyzed by flow cytometry. […] Note the increase in GFP positivity from 5% to 14% upon […] Paclitaxel treatment.
# However, we postulated that the differential drug sensitivity observed was, rather, a consequence of the respective differentiation states of the immortalized cells from which the cancer cell lines were derived. To directly examine this hypothesis, we treated HMLEsiGFP and HMLEsiEcad cells for a period of […] with a series of chemical compounds at 3 different concentrations each. Included in these compounds were the established chemotherapy drugs Doxorubicin, Paclitaxel, Actinomycin D, Camptothecin as well as a broad kinase inhibitor, Staurosporine.
# (§4) Doxorubicin, paclitaxel, actinomycin D, campthotecin and staurosporine were purchased from Sigma and dissolved in dimethyl sulfoxide (dmso). 5000 cells in 100 ul of medium were plated per well in 96-well plates. 24 hrs after seeding, compounds at the indicated concentration were added to wells (5 wells per each concentration). Dmso treatment was used as negative control. Cell viability was measured after 72 hrs using the CellTiter96 AQueous Assay (Promega) according to manufacturer's instructions. Dose response curves were generated with GraphPad Prism software (GraphPad Software, Inc.).
# [3] = tested on: HMLE-Twist cells; test: Co-culture of GFP-expressing HMLE cells and unlabelled HMLE-Twist cells, FACS for GFP positivity; format: cell-based, human; details: FIG. 4C; for GFP-positive fraction relative to DMSO-treated controls: GFP-labeled HMLE + unlabeled HMLE-Twist
# Description: as §1
# To examine the effects of salinomycin and abamectin treatment on heterogeneous populations of epithelial cells that have and epithelial cells that have not undergone EMT, we co-mixed GFP-labeled HMLE cells with unlabeled HMLE-Twist cells, treating the resulting co-cultures with compounds. As a positive control for this experiment we treated co-cultures with blasticidin, which selects for the differentiated HMLE-GFP cells, which harbor a blasticidin-resistance gene.
# For the mix experiments, unlabelled and GFP-labeled cells were mixed at the indicated ratios and seeded onto 6-well plates. Triplicate wells were then treated with dmso or the compounds (paclitaxel, salinomycin, abamectin and blasticidin) for 48 hrs. The cells were washed with PBS, trypsinized and analyzed by FACS for GFP positivity.
# [4] = tested on: HMLERshEcad cells; test: Resistance to cytotoxic agents, transformed HMLERshCntrl vs HMLERshEcad dose response; format: cell-based, human; details: FIG. 2A
# Description: as §3
# Since the HMLERsiEcad cells have a 100-fold increase in the frequency of cells capable of seeding tumors, we examined their response to two commonly used chemotherapy drugs, relative to HMLERsiGFP controls. We treated cultured HMLERsiGFP and HMLERsiEcad cells for a period of 3 days with either doxorubicin or paclitaxel, at various concentrations.
# as §4
# [5] = tested on: HMLE-Twist cells; test: Dose-response viability of HMLEshCntrl vs HMLE-Twist cells; format: cell-based, human; details: EMT induced by Twist, FIG. 4B
# Description: as §1, §2
# [6] = tested on: HMLERshEcad cells; test: Dose response of transformed HMLERshCntrl vs HMLERshEcad cells to screen hits; format: cell-based, human; details: range of concentrations, FIG. 4D
# Description: as §1
# [7] = tested on: SUM159 cells; test: FACS of the CD44hi/CD24lo fraction in treated SUM159 cells; format: cell-based; details: FIGS. 5C and 5D
# Source text: FIG. 5A depicts flow cytometry analysis of Sum159, MDA-MB-231 and T47D cell lines with respect to cell surface expression of CD44 and CD24. Note that while the majority of cells in Sum159 and MDA-MB-231 line contain large amounts of CSCs, T47D cells have very few such cells. FIG. 5B depicts dose response curves of Sum159, MDA-MB-231 and T47D cell treated with Salinomycin.
# To further characterize the effects of compound treatment on cancer cells, we conducted FACS analyses on SUM159 cells treated with salinomycin, abamectin, taxol, or DMSO.
# The anti-CD44 (clone G44-26) antibody conjugated to APC and the anti-CD24 antibody (clone ML5) conjugated to PE used for FACS analysis were obtained from BD Bioscience and used according to the manufacturer's instructions. Propidium Iodide (5 ug/ml) was included in the staining protocol to distinguish live cells.
molecule,measurement,setting,value
c1ccc2nc3ccccc3cc2c1 [Acridine],selective toxicity towards HMLEshEcad cells relative to HMLEshCntrl cells,[1],do not display such a behaviour
Clc1ccccc1C(c1ccccc1)(c1ccccc1)n1ccnc1 [Clotrimazole],selective toxicity towards HMLEshEcad cells relative to HMLEshCntrl cells,[1],do not display such a behaviour
Oc1cccc(O)c1 [Resorcinol],selective toxicity towards HMLEshEcad cells relative to HMLEshCntrl cells,[1],do not display such a behaviour
"Cc1c2oc3c(C)ccc(C(=O)N[C@@H]4C(=O)N[C@H](C(C)C)C(=O)N5CCC[C@H]5C(=O)N(C)CC(=O)N(C)[C@@H](C(C)C)C(=O)O[C@@H]4C)c3nc-2c(C(=O)N[C@@H]2C(=O)N[C@H](C(C)C)C(=O)N3CCC[C@H]3C(=O)N(C)CC(=O)N(C)[C@@H](C(C)C)C(=O)O[C@@H]2C)c(N)c1=O [actinomycin D] (I: T[dV]P[Sar][NMeV] / II: T[dV]P[Sar][NMeV]; ester I:1-I:C, II:1-II:C; linker I:N-II:N via Actinocin(9to1))",resistance of HMLEshEcad cells relative to HMLEshCntrl control cells,[2],resistant
same,resistance of HMLEshEcad cells relative to HMLEshCntrl control cells,[2]; listed as Actinomycin D,increased resistance
CN(CC[C@H](N)CC(=O)N[C@H]1C=C[C@H](n2ccc(N)nc2=O)O[C@@H]1C(=O)O)C(=N)N [blasticidin],GFP-positive fraction relative to DMSO-treated controls,[3],increase
CC[C@@]1(O)C(=O)OCc2c1cc1n(c2=O)Cc2cc3ccccc3nc2-1 [camptothecin],resistance of HMLEshEcad cells relative to HMLEshCntrl control cells,[2],resistant
same,resistance of HMLEshEcad cells relative to HMLEshCntrl control cells,[2]; listed as Camptothecin,increased resistance
COc1cccc2c1C(=O)c1c(O)c3c(c(O)c1C2=O)C[C@@](O)(C(=O)CO)C[C@@H]3O[C@H]1C[C@H](N)[C@H](O)[C@H](C)O1 [doxorubicin],IC50 for HMLERsiEcad cells relative to IC50 for HMLERsiGFP cells,"[4]; 3 days, various concentrations",significantly higher
same,resistance of HMLERshEcad cells compared to HMLERshCntrl cells,[4],significantly more resistant
same,resistance of HMLERshEcad cells compared to HMLERshCntrl cells,[4]; listed as Doxorubicin,more resistant
same,resistance of HMLEshEcad cells relative to HMLEshCntrl control cells,[2],increased resistance
CO[C@@H]1C[C@@H](C[C@H]2CC[C@H](C)[C@H]([C@@H](C)C(=O)O)O2)O[C@]2(O[C@](C)([C@H]3CC[C@@](C)([C@@H]4O[C@@H]([C@H]5O[C@@](O)(CO)[C@H](C)C[C@@H]5C)C[C@@H]4C)O3)C[C@H]2C)[C@@H]1C [nigericin],IC50 fold lower for HMLEshEcad cells vs HMLEshCntrl cells,[1],~7 fold
same,selective toxicity towards HMLEshEcad cells relative to HMLEshCntrl cells,[1],weaker selectivity; also recorded: modest selective toxicity
same,selective toxicity towards HMLEshEcad cells relative to HMLEshCntrl cells,[1]; listed as Nigericin,selective toxicity
same,selectivity for HMLE-Twist cells vs HMLEshCntrl; dose-response curves compared with HMLEshEcad,[5],is retained
CN[C@@H]1C[C@H]2O[C@@](C)([C@@H]1OC)n1c3ccccc3c3c4c(c5c6ccccc6n2c5c31)C(=O)NC4 [staurosporine],resistance of HMLEshEcad cells relative to HMLEshCntrl control cells,[2],resistant
same,resistance of HMLEshEcad cells relative to HMLEshCntrl control cells,[2]; listed as Staurosporine,increased resistance
abamectin,selective toxicity for HMLERshEcad (MT tumorigenic) cells,[6],modest but selective toxicity
same,IC50 fold lower for HMLEshEcad cells vs HMLEshCntrl cells,[1],~10 fold
same,selective toxicity towards HMLEshEcad cells relative to HMLEshCntrl cells,[1],moderate to strong selectivity; also recorded: strong specificity
same,selective toxicity towards HMLEshEcad cells relative to HMLEshCntrl cells,[1]; listed as Abamectin,selective toxicity
same,percent of cells in the CD44hi/CD2410 fraction relative to DMSO controls,[7],did not significantly alter
same,GFP-positive fraction relative to DMSO-treated controls,[3],increase
same,proportion of HMLETwist cells in co-culture with control cells,"[3]; Salinomycin 1.25 or 5 μM, Abamectin 0.25 or 1.25 μM",dose-dependent decrease; also recorded: selection against the GFP-negative HMLE-twist cells
same,selectivity for HMLE-Twist cells vs HMLEshCntrl; dose-response curves compared with HMLEshEcad,[5],is retained
